# Assays:
# [1] = tested on: EMT-6 tumors; experiment: EMT-6 tumor regrowth assay after PDT; type: in vivo, C.B17/Icr scid mice; conditions: for Regrowth time (time to grow to two times the treatment volume): 300J of 670 nm one hr after administration
# Method: (§1) Photosensitizer efficacy was measured with two different tumor models. Solid EMT-6 tumors (~0.1 cm^3) growing on the backs of C.B17/Icr scid mice were exposed to 300J of 670 nm light one hour after the iv administration of Ph4-OH. Light was generated by a laser, transported to the tumor-bearing mouse via an optical fiber and focused onto the tumor surface through a diffusing lens. The light dose rate at the tumor surface was 200-400 mW/cm^2 and the field size encompassed the tumor cross section. […] EMT-6 tumor response was quantified by two different assays. At various times after PDT treatment, animals were sacrified, tumors were removed in toto from the animal and mechanically disrupted. Tumor cells were released by an enzyme digestion procedure. Released tumor cells were plated into Petri dishes for colony forming assays.
# Tumor response to PDT was also quantified by tumor regrowth assay. The volumes of both untreated and PDT-treated tumors in animals were estimated from caliper measurements made three times a week. Tumor response in vivo was characterized by acute inflammatory reaction observed on days 1 and 2 after treatment followed by tumor volume shrinkage and eventual cure or regrowth. These responses from individual tumors were quantified in days after treatment required for tumors to reach two times their treatment volume. […] Tumor response is a function of photosensitizer dosage. […] In this assay, some tumor cures are consistently observed when growth delay times are 15 days and greater.
# TIME FOR EMT-6 TUMORS TO GROW TO TWO
# TIMES THE TREATMENT VOLUME AFTER 300J
# OF 670 NM DELIVERED ONE HR AFTER I.V.
# PHOTOSENSITIZER ADMINISTRATION
# [2] = tested on: EMT-6 mouse tumor cells; experiment: Photosensitizer drug uptake into EMT-6 tumor cells; type: cell-based; conditions: for Initial binding rate: EMT-6
# Method: (§2) EMT-6 mouse tumor and UNA mouse endothelial cells were exposed to various concentrations of the photosensitizer compounds of the invention in slowly-stirred suspension cultures. […] Cells were lysed and solubilized by mixing 1 mL of cell suspension with 1 mL 4% Triton X-100. After 2 hours of extraction, samples were mixed with 2 mL 95% EtOH and photosensitizer levels quantified by spectrofluorometry using Eex =400 nm and Eem =670 nm. […] For both cell lines, uptake is dependent upon photosensitizer concentration in the media and the larger volume tumor cells show the higher rates of uptake. If drug uptake rate is normalized to a standard cell volume, EMT-6 tumor cells bind the photosensitizer at 1.25 times that of UNA endothelial cells.
# [3] = tested on: UNA mouse endothelial cells; experiment: Photosensitizer drug uptake into UNA endothelial cells; type: cell-based
# Method: as §2
# [4] = tested on: Dunning prostate carcinomas (R3327-AT); experiment: Tumor response and cure of Dunning prostate carcinomas after PDT; type: in vivo, Fischer X Copenhagen rats
# Text: Tumor response and cure was also investigated with 4-5 cm^3 Dunning prostate carcinomas (R3327-AT) growing in Fischer X Copenhagen rats. These tumors were illuminated by laser light delivered by a laterally-diffusing optical fiber applicator which contained seven fibers in an hexagonal array of equilateral triangles with 0.9 cm spacing.
# [5] = tested on: EMT-6 mouse tumor cells; experiment: Photosensitizing effectiveness with EMT-6 tumor cells in vitro (photoinactivation); type: cell-based; conditions: for Photoinactivation rate (1/D50): 670 nm (pheophorbide) or 750 nm (bacteriopheophorbide), one hour exposure
# Method: EMT-6 mouse tumor cells were exposed in slowly-stirred suspension cultures to various concentrations of Ph6-OH, Ph4-OH and BPh4-OH for one hour prior to illumination with graded light doses of specific wavelength. The pheophorbide and bacteriopheophorbide compounds were illuminated with 670 and 750 nm light, respectively. Illuminated cell populations were plated into Petri dishes containing appropriate media for colony forming assays. The surviving fraction (SF) of cells after various PDT treatments was computed from the ratio, [plating efficiency (treated cells)]/[plating efficiency (control cells)]. For each photosensitizer dosage investigated,survival curves of log SF versus light dose were constructed and analyzed. The light dose required to kill 50%, 90% and 99% of tumor cell populations (D50, D10 and D01) were determined. The reciprocal of light dose required to kill 50% of a tumor cell population (1/D50) was used as a photoinactivation rate for each concentration and as a basis for comparison of photosensitizer efficacy. Inactivation rates for the various photosensitizing agents activated with 630 (Photofrin® ), 670 (Ph6-OH) and 750 (BPh4-OH) nm light are shown in the accompanying Figure. Rates of photoinactivation and relative effectiveness of the pheophorbide and bacteriopheophorbide compounds compared to Photofrin®are given in Table C. The inactivation rate for Photofrin® was extrapolated from data generated at much higher drug concentrations utilizing the same experimental protocol. The relative effectiveness of Ph4-OH and BPh4-OH are approximately 800X and approximately 1150X, respectively.
# For each concentration of photosensitizer compound studied, there was a threshold dose of light below which little or no cell killing occurred. […] For example, for PH6-OH at 0.1, 0.3 and 0.5 μM, the threshold light dose was 0.75, 0.18 and 0.08J/cm^2, respectively.
# [6] = tested on: EMT-6 tumor cells; experiment: Plating efficiency (colony forming assay) of EMT-6 tumor cells from tumors treated in vivo by PDT; design: species or system C.B17/Icr scid mice; conditions: for Plating efficiency, excision at 24 hr / Plating efficiency, immediate excision: 300J of 670 nm light
# Method: as §1
# IN VITRO PLATING EFFICIENCIES OF EMT-6
# TUMOR CELLS FROM TUMORS TREATED IN VIVO
# BY PDT WITH 300J OF 670 NM LIGHT
# [7] = .3 μM, compared to Photofrin (= 1)
smiles,measurement,setting,value
"C=Cc1c(C)c2cc3nc(c4c5[nH]c(cc6nc(cc1[nH]2)C(C)=C6CC)c(C)c5C(=O)C4C(=O)OC)C(CCC(=O)NCCCCO)C3C (stereo not shown) [Ph4-OH, 9-Ethenyl-14-ethyl-21-(methoxycarbonyl)-4,8,13,18-tetramethyl-20-oxo-N-(4-hydroxybutyl)-3-phorbinepropanamide]",Regrowth time (time to grow to two times the treatment volume),[1]; 0.45 mg/kg i.v.,4.3 ± 0.4 days
same,Regrowth time (time to grow to two times the treatment volume),[1]; 0.75 mg/kg i.v.,8.6 ± 0.5 days
same,Regrowth time (time to grow to two times the treatment volume),[1]; 1.00 mg/kg i.v.,12.4 ± 0.6 days
same,Regrowth time (time to grow to two times the treatment volume),[1]; 1.50 mg/kg i.v.,> 22.0 days
same,Tumor response (compared with Ph6-OH),"[1]; 300J of 670 nm light, in words",superior tumor response
same,Potency relative to Photofrin for equal tumor growth delay,"[1]; relative to Photofrin, photosensitizer dosage and light dose",at least fifty times more potent
same,Initial binding rate,[2]; 0.5 μM,0.097 μg/10^6 cells/hr
same,Initial binding rate,[2]; 1.0 μM,0.068 μg/10^6 cells/hr
same,"Uptake rate normalized to standard cell volume, EMT-6 tumor cells relative to UNA endothelial cells",[2]; ratio EMT-6/UNA,1.25 times
same,Initial binding rate,[3]; 0.5 μM,0.067 μg/10^6 cells/hr
same,Initial binding rate,[3]; 1.0 μM,0.038 μg/10^6 cells/hr
same,Tumor necrosis and response,"[4]; 2 mg/kg iv, 400J of 670 nm light one hour after administration, 4-5 cm^3 tumors",Complete tumor necrosis and response
same,Potency relative to Photofrin for inducing tumor necrosis and cure,[4]; relative to Photofrin,at least eighty times more potent
same,Photoinactivation rate (1/D50),[5]; .3 μM,7.30 (J/cm^2)^-1
same,Relative effectiveness,[5]; [7],811
same,Relative effectiveness,[5]; compared to Photofrin,approximately 800 X
same,"Plating efficiency, excision at 24 hr",[6]; 1 mg/kg iv,0.001 ± 0.001
same,"Plating efficiency, immediate excision",[6]; 1 mg/kg iv,0.55 ± 0.07
same,"Plating efficiency, excision at 24 hr",[6]; 2 mg/kg iv,≤ 0.0001
same,"Plating efficiency, immediate excision",[6]; 2 mg/kg iv,0.48 ± 0.09
same,Tumor cell plating efficiency when tumors excised 24 hr after PDT,"[6]; 24 hr after PDT, in words",decreased dramatically in proportion to photosensitizer concentration and light dose
same,Tumor cell killing when tumors excised immediately after PDT,"[6]; immediately after PDT, in words",little or no killing observed
same,Potency relative to Photofrin for producing same extent of tumor cell kill in vivo,"[6]; relative to Photofrin, photosensitizer and light doses",at least fifty times more potent
"CCC1c2cc3[nH]c4c(c3C)C(=O)C(C(=O)OC)c4c3nc(cc4[nH]c(cc(n2)C1C)c(C(C)=O)c4C)C(C)C3CCC(=O)NCCCCO (stereo not shown) [BPh4-OH, 9-Acetyl-14-ethyl-13,14-dihydro-21-(methoxycarbonyl)-4,8,13,18-tetramethyl-20-oxo-N-(4-hydroxybutyl)-3-phorbinepropanamide]",Photoinactivation rate (1/D50),[5]; .3 μM,10.4 (J/cm^2)^-1
same,Relative effectiveness,[5]; [7],1156
same,Relative effectiveness,[5]; compared to Photofrin,approximately 1150 X
"C=Cc1c(C)c2cc3nc(c4c5[nH]c(cc6nc(cc1[nH]2)C(C)=C6CC)c(C)c5C(=O)C4C(=O)OC)C(CCC(=O)NCCCCCCO)C3C (stereo not shown) [Ph6-OH, 9-Ethenyl-14-ethyl-21-(methoxycarbonyl)-4,8,13,18-tetramethyl-20-oxo-N-(6-hydroxyhexyl)-3-phorbinepropanamide]",Regrowth time (time to grow to two times the treatment volume),[1]; 0.60 mg/kg i.v.,4.7 ± 0.7 days
same,Regrowth time (time to grow to two times the treatment volume),[1]; 1.00 mg/kg i.v.,7.9 ± 1.3 days
same,Regrowth time (time to grow to two times the treatment volume),[1]; 3.00 mg/kg i.v.,25.5 ± 2.9 days
same,Threshold light dose below which little or no cell killing occurred,[5]; 0.1 μM,0.75 J/cm^2
same,Threshold light dose below which little or no cell killing occurred,[5]; 0.3 μM,0.18 J/cm^2
same,Threshold light dose below which little or no cell killing occurred,[5]; 0.5 μM,0.08 J/cm^2
same,Photoinactivation rate (1/D50),[5]; .3 μM,5.10 (J/cm^2)^-1
same,Relative effectiveness,[5]; [7],567

# Source: patent publication US5492924A, “Phorbine derivatives and their use in the diagnosis and therapy of cancer” (Fox Chase Cancer Center, priority 1993, dated 1996)
